Results: publication PMC9869995, “Discovery of benzochromene derivatives first example with dual cytotoxic activity against the resistant cancer cell MCF-7/ADR and inhibitory effect of the P-glycoprotein expression levels” (Journal of Enzyme Inhibition and Medicinal Chemistry, 2023)

Experiments:
MCF-7 = test: MTT cell viability assay, MCF-7; type: cell-based; conditions: Homo sapiens, MCF7, 24 h incubation, mean ± standard error
From the text: (§1) According to previous reports regarding the cytotoxic features of a numerous array of benzochromene scaffolds, compounds 4a − z have been elected to explore their cytotoxic ability against three tumour cell lines, including HCT-116 (colon cancer), MCF-7 (breast cancer), and HepG-2 (hepatocellular cancer), and employing the 3–(4,5-dimethylthiazol-2-yl)-2,5-diphenyl tetrazolium bromide (MTT) colorimetric assay as described in literature. Judges choice of such cell lines has been stimulated by the acknowledged antitumor performance of a substantial number of 1H-benzo[f]chromene and 4H-benzo[h]chromene molecules towards the asserted cell lines. […] Moreover, benzochromene derivatives with highly cytotoxic behaviour, 4a − d, 4g, 4i, 4k, 4n, 4q, 4 u, and 4w, are subjected to further inspection against ADR-resistant human breast cancer cells (MCF-7/ADR) and the two normal cell lines, HFL-1 and human diploid fibroblasts (WI-38). […] Also, the results are illustrated in Table 4.
(§2) The tumour cell lines MCF-7, HepG-2, and […] were obtained from the American Type Culture Collection (ATCC, Rockville, MD). The cells were grown on RPMI-1640 medium supplemented with 10% inactivated foetal calf serum and 50 µg/mL gentamycin. The cells were maintained at 37 °C in a humidified atmosphere with 5% CO2 and were subculture two to three times a week.
(§3) The cytotoxic activity was appraised, using the 3–(4,5-dimethylthiazol-2-yl)-2,5-diphenyl-tetrazolium bromide (MTT) colorimetric assay, as reported previously[57] and ELISA assay for MCF-7/ADR[75].

HCT-116 = test: MTT cell viability assay, HCT-116; type: cell-based; conditions: Homo sapiens, 24 h incubation, mean ± standard error
From the text: as §1, §3

HepG-2 = test: MTT cell viability assay, HepG-2; type: cell-based; conditions: Homo sapiens, HepG2, 24 h incubation, mean ± standard error
From the text: as §1, §2, §3

HFL-1 = test: Cytotoxicity against normal cell line HFL-1; type: cell-based; conditions: Homo sapiens, HFL1, 24 h, mean ± standard error
From the text: as §1, §3

WI-38 = test: Cytotoxicity against normal cell line WI-38; type: cell-based; conditions: Homo sapiens, 24 h, mean ± standard error
From the text: as §1, §3

MCF-7/ADR = test: Cytotoxicity against ADR-resistant breast cancer cells; type: cell-based, human; conditions: 24 h exposure, mean ± standard error
From the text: as §1, §3

[1] = Homo sapiens, NCI/ADR-RES, 24 h

| Structure (SMILES) | IC50 (MCF-7) | IC50 (HCT-116) | melting point | IC50 (HepG-2) | IC50 (HFL-1) | IC50 (WI-38) | IC50 (MCF-7/ADR; [1]) | IC50 (MCF-7/ADR) |
| --- | --- | --- | --- | --- | --- | --- | --- | --- |
| COc1ccc2ccc3c(c2c1)C(c1c(F)cccc1F)C(C#N)=C(N)O3 (centres unmarked) [4l, 3-Amino-1–(2,6-difluorophenyl)-9-methoxy-1H-benzo[f]chromene-2-carbonitrile] | 15.4 ± 0.2 µM | 77.7 ± 0.3 µM | 305 to 306 °C | 28.5 ± 0.4 µM | – | – | – | – |
| COc1ccc2ccc3c(c2c1)C(c1cc(Cl)ccc1Cl)C(C#N)=C(N)O3 (centres unmarked) [4o, 3-Amino-1–(2,5-dichlorophenyl)-9-methoxy-1H-benzo[f]chromene-2-carbonitrile] | 3.8 ± 0.3 µM | 8.3 ± 0.2 µM | 268 to 269 °C | 46.6 ± 0.1 µM | – | – | – | – |
| COc1ccc2ccc3c(c2c1)C(c1ccc(C)cc1)C(C#N)=C(N)O3 (centres unmarked) [4i, 3-Amino-1–(4-methylphenyl)-9-methoxy-1H-benzo[f]chromene-2-carbonitrile] | 7 ± 0.1 µM | 2.9 ± 0.1 µM | 245 to 246 °C | 8.8 ± 0.2 µM | 71.6 ± 0.3 µM | 61.7 ± 0.1 µM | 42.8 ± 2.4 µM | – |
| COc1ccc2ccc3c(c2c1)C(c1ccc(F)cc1)C(C#N)=C(N)O3 (centres unmarked) [4a, 3-Amino-1–(4-fluorophenyl)-9-methoxy-1H-benzo[f]chromene-2-carbonitrile] | 16.5 ± 0.1 µM | 6.4 ± 0.1 µM | 267 to 268 °C | 11.3 ± 0.1 µM | 45.1 ± 0.2 µM | 56.7 ± 1.1 µM | 24.4 ± 1.2 µM | – |
| COc1ccc2ccc3c(c2c1)C(c1ccc(OC)c(OC)c1OC)C(C#N)=C(N)O3 (centres unmarked) [4x, 3-Amino-1–(2,3,4-trimethoxyphenyl)-9-methoxy-1H-benzo[f]chromene-2-carbonitrile] | 96.1 ± 0.6 µM | 36.6 ± 0.1 µM | 239 to 240 °C | 59.7 ± 0.3 µM | – | – | – | – |
| COc1ccc(C2C(C#N)=C(N)Oc3ccc4ccc(OC)cc4c32)c(OC)c1 (centres unmarked) [4v, 3-Amino-1–(2,4-dimethoxyphenyl)-9-methoxy-1H-benzo[f]chromene-2-carbonitrile] | 100 ± 0.2 µM | 49.9 ± 0.5 µM | 218 to 220 °C | 93.2 ± 0.2 µM | – | – | – | – |
| COc1ccc2ccc3c(c2c1)C(c1cccc(Br)c1)C(C#N)=C(N)O3 (centres unmarked) [4f, 3-Amino-1–(3-bromophenyl)-9-methoxy-1H-benzo[f]chromene-2-carbonitrile] | 69.2 ± 0.3 µM | 11.5 ± 1.1 µM | 263 to 265 °C | 63.6 ± 3.2 µM | – | – | – | – |
| COc1ccc2ccc3c(c2c1)C(c1c(Cl)cccc1Cl)C(C#N)=C(N)O3 (centres unmarked) [4p, 3-Amino-1–(2,6-dichlorophenyl)-9-methoxy-1H-benzo[f]chromene-2-carbonitrile] | 41.5 ± 0.1 µM | 18.9 ± 0.2 µM | 321 to 322 °C | 25.9 ± 0.3 µM | – | – | – | – |
| COc1ccc2ccc3c(c2c1)C(c1c(F)cccc1Cl)C(C#N)=C(N)O3 (centres unmarked) [4t, 3-Amino-1–(2-chloro-6-fulorophenyl)-9-methoxy-1H-benzo[f]chromene-2-carbonitrile] | 100 ± 1.3 µM | 96.5 ± 2 µM | 292 to 294 °C | 48.1 ± 1.3 µM | – | – | – | – |

Further lines, with some results ahead:

| IC50 (MCF-7) | IC50 (HCT-116) | melting point | Structure (SMILES) | IC50 (HepG-2) | IC50 (HFL-1) | IC50 (WI-38) | IC50 (MCF-7/ADR; [1]) | IC50 (MCF-7/ADR) |
| --- | --- | --- | --- | --- | --- | --- | --- | --- |
| 5.8 ± 0.04 µM | 6.8 ± 0.1 µM | 263 to 264 °C | COc1ccc2ccc3c(c2c1)C(c1cc(Br)cc(Br)c1OC)C(C#N)=C(N)O3 (centres unmarked) [4z, 3-Amino-1–(3,5-dibromo-2-methoxyphenyl)-9-methoxy-1H-benzo[f]chromene-2-carbonitrile] | 3.5 ± 0.2 µM | 33.3 ± 0.1 µM | 39.6 ± 0.4 µM | – | – |
| 4.9 ± 0.5 µM | 5.3 ± 0.4 µM | 260 to 262 °C | COc1ccc2ccc3c(c2c1)C(c1cc(Br)ccc1Br)C(C#N)=C(N)O3 (centres unmarked) [4r, 3-Amino-1–(2,5-dibromophenyl)-9-methoxy-1H-benzo[f]chromene-2-carbonitrile] | 6.8 ± 0.5 µM | 38.1 ± 0.2 µM | 33.9 ± 0.4 µM | – | – |
| 7.5 ± 0.03 µM | 3.2 ± 0.1 µM | – | CC[C@]1(O)C[C@@H]2CN(CCc3c([nH]c4ccccc34)[C@@](C(=O)OC)(c3cc4c(cc3OC)N(C)[C@H]3[C@@](O)(C(=O)OC)[C@H](OC(C)=O)[C@]5(CC)C=CCN6CC[C@]43[C@@H]65)C2)C1 [Vinblastine, reference compound] | 5.7 ± 0.1 µM | – | – | – | – |
| 48.4 ± 0.1 µM | 27.7 ± 0.3 µM | 227 to 228 °C | COc1ccc2ccc3c(c2c1)C(c1ccc(I)cc1)C(C#N)=C(N)O3 (centres unmarked) [4h, 3-Amino-1–(4-iodophenyl)-9-methoxy-1H-benzo[f]chromene-2-carbonitrile] | 39.2 ± 0.2 µM | – | – | – | – |
| 8.3 ± 0.6 µM | 5.9 ± 0.4 µM | 273 to 275 °C | COc1ccc2ccc3c(c2c1)C(c1ccccc1Br)C(C#N)=C(N)O3 (centres unmarked) [4e, 3-Amino-1–(2-bromophenyl)-9-methoxy-1H-benzo[f]chromene-2-carbonitrile] | 4.9 ± 0.2 µM | 49.5 ± 1.1 µM | 59.1 ± 1.1 µM | – | – |
| 26.1 ± 0.1 µM | 15.4 ± 0.1 µM | 260 to 261 °C | COc1ccc2ccc3c(c2c1)C(c1cc(OC)c(OC)c(OC)c1)C(C#N)=C(N)O3 (centres unmarked) [4y, 3-Amino-1–(3,4,5-trimethoxyphenyl)-9-methoxy-1H-benzo[f]chromene-2-carbonitrile] | 8.8 ± 0.2 µM | 34.1 ± 0.2 µM | 29.9 ± 0.4 µM | – | – |
| 5.6 ± 0.1 µM | 2.2 ± 0.1 µM | 252 to 253 °C | COc1ccc2ccc3c(c2c1)C(c1ccc(Br)cc1)C(C#N)=C(N)O3 (centres unmarked) [4g, 3-Amino-1–(4-bromophenyl)-9-methoxy-1H-benzo[f]chromene-2-carbonitrile] | 2 ± 0.1 µM | 65.3 ± 0.1 µM | 69 ± 1.1 µM | 19.6 ± 1 µM | – |
| 26.8 ± 1.8 µM | 20.2 ± 1.1 µM | 212 to 214 °C | COc1ccc2ccc3c(c2c1)C(c1ccc(C(F)(F)F)cc1)C(C#N)=C(N)O3 (centres unmarked) [4j, 3-Amino-1–(4-trifluoromethylphenyl)-9-methoxy-1H-benzo[f]chromene-2-carbonitrile] | 5.3 ± 0.1 µM | – | – | – | – |
| 0.2 µM | 14.7 ± 2.3 µM | 237 to 239 °C | COc1ccc2ccc3c(c2c1)C(c1ccc(C(F)(F)F)cc1F)C(C#N)=C(N)O3 (centres unmarked) [4u] | 10.6 ± 0.9 µM | 55.3 ± 0.1 µM | 60.3 ± 0.1 µM | 19.7 ± 0.8 µM | – |
| 1.8 ± 0.1 µM | 1.7 ± 0.2 µM | 261 to 262 °C | COc1ccc2ccc3c(c2c1)C(c1ccc(Cl)cc1Cl)C(C#N)=C(N)O3 (centres unmarked) [4n, 3-Amino-1–(2,4-dichlorophenyl)-9-methoxy-1H-benzo[f]chromene-2-carbonitrile] | 7.3 ± 0.2 µM | 71.7 ± 0.1 µM | 61.9 ± 0.3 µM | 10.9 to 15.5 µM | 15.5 ± 0.2 µM |
| 13.6 ± 0.2 µM | 15 ± 2.6 µM | 268 to 270 °C | COc1ccc2ccc3c(c2c1)C(c1cc(Br)cc(Br)c1)C(C#N)=C(N)O3 (centres unmarked) [4s, 3-Amino-1–(3,5-dibromophenyl)-9-methoxy-1H-benzo[f]chromene-2-carbonitrile] | 13.4 ± 1.1 µM | – | – | – | – |
| 9.1 ± 0.2 µM | 42 ± 0.2 µM | 310 to 311 °C | COc1ccc2ccc3c(c2c1)C(c1cccc(Cl)c1Cl)C(C#N)=C(N)O3 (centres unmarked) [4m, 3-Amino-1–(2,3-dichlorophenyl)-9-methoxy-1H-benzo[f]chromene-2-carbonitrile] | 11.8 ± 0.2 µM | – | – | – | – |
